The assay has as its system post-operative dental pain. Briefly: Clinical trial in patients with post-operative dental pain (model for acute pain), randomized double-blind parallel-group. Format: in vivo. As to conditions: single dose, ibuprofen 400 mg, caffeine 100 mg or fixed combination. How it is done:
Male and female patients between the ages of 18 and 55 years, scheduled for the extraction of 3 to 4 unsound wisdom teeth, with at least 2 extracted molars were recruited; the baseline of dental pain intensity must be at least moderate on a verbal evaluation scale and at least 5 on a numerical evaluation scale ranging from 0 to 10.
The pain intensity (PI) was evaluated in a diary before administration and at 0.25, 0.5, 0.75, 1, 1.5, 2, 3, 4, 5, 6, 7 and 8 hours after the first dose of the study medication using an 11-point numerical rating scale (NPRS) from 0=“no pain” to 10=“worst possible pain”.
The pain relief (PAR) beginning from pain onset was evaluated in a patient diary using a 5-point rating scale (VRS) (0=no pain relief; 1=a little pain relief; 2=some pain relief; 3=much pain relief; 4=complete pain relief) at the same time points as for the PI evaluation.
As soon as a patient needed an emergency medication or a second dose of the medication within less than 8 hours, PI and PAR were evaluated before the emergency medication or second dose was administered.
The time-weighted sum of pain relief (PAR) and the pain intensity difference (PID) relative to baseline between 0 and 8 hours is determined as follows:
Higher values of the SPRID0-8 h likewise indicate greater benefit for the patient.

Molecules are shown by their SMILES.

Take `CC(C)Cc1ccc(C(C)C(=O)O)cc1` (racemic) [Ibuprofen, (+/−) 2-(p-isobutylphenyl)-propionic acid]: under “Kaplan-Meyer analysis”, the “Median duration of action” value worked out at 7.1 h. The “Adjusted Mean SPRID0-8 h value (time-weighted sum of pain relief and pain intensity difference from 0 to 8 hours)” value (study stage 1, primary endpoint, higher = greater benefit) was 40.165. Also, under “study stage 1, secondary endpoint”, the “Adjusted Mean SPRID0-2 h value (time-weighted sum of PAR and PID from 0 to 2 hours)” value is 6.990.
